Values after ≈ are worked out from the molar mass of the structure shown.
Experiment: Water solubility determination (HPLC)
Type: physicochemical
Conditions: thermodynamic from solid, ultra-pure water, room temperature
Procedure: at room tem p eratu re fo r 2 h. After centrifu gation at 3000×g fo r 10 min, the supernatant wa s transferred into a sample vial and dried with Sp ee d vac (Fish er Scientific). So lu ti on s fo r standards were prepared by using a series of different concentrations of ursolic acid (i.e., 0.1, 0.5, 1.0, 2. 0, 5.0 ug /mL in methanol ). Ea c h sample was in jec ted fo r analysis by liq uid chromatography‐tan dem mass spectrometry (UPLC‐MS/MS) with multip le react io n monitor ing (MRM) mode. (2) UPLC‐MS/MS analysis Sa m ples were analyzed wi t h Acquity UPLC syste m (Waters) cou ple d wi t h a Q‐TRAP 6500 mass spectrometer (Sciex). Spe cifically, 5 μL of each sample wa s loaded onto a C18 column (Waters Acquity UPLC BEH C18 1.7μm, 2.1mm x 50 mm). […]
Mass spectra were recorded with Analyst TF 1.6.2 software in th e MRM mode (Q1 mass: 455 Da, Q3 mass:455.1 Da , Time:100 ms, CE: ‐20, DP: ‐50: EP:‐ 7, CXP: ‐12). (3) Data analysis: Data files we re analyzed with quantitated with the “Quantitation Method” in th e An al yst software […]
slid e at a flow ra te of 25 μL/ min wi th 110 s contac t time and 250 s dissociation time. Th e background re s p o ns e was recorded using th e refere nce flow channel, and the background data wa s subtracted from the data fro m each injection sample. […]

## C[C@H]1[C@H](C)CC[C@]2(C(=O)NCC(=O)N(C)CCO)CC[C@]3(C)C(=CC[C@@H]4[C@@]5(C)CC[C@H](O)C(C)(C)[C@@H]5CC[C@]43C)[C@H]12 [UAMMC9]
  solubility at 24 h: 39.7 µg/mL (≈ 69.5 µM)

From publication PMC8710297, “Identification of potent SENP1 inhibitors that inactivate SENP1/JAK2/STAT signaling pathway and overcome platinum drug resistance in ovarian cancer” (Clinical and Translational Medicine, 2021)
